In publication PMC5039417, “Aberrant Glycosylation of Anchor-Optimized MUC1 Peptides Can Enhance Antigen Binding Affinity and Reverse Tolerance to Cytotoxic T Lymphocytes” (Biomolecules, 2016):
No end group written: not given here.

What was measured:
[1] = molecular target: HLA-A*0201 molecules (Homo sapiens, UniProt P04439, D140Y/D185E/D98H/E176V/E277Q/G131W/G231S/I119V/I121R/I166T/I218V/L300P/L318F/N151K/N90K/P208A/P217A/Q86G/Q94H/R138H/R169H/T345S); test: Competitive peptide inhibition assay (F1-peptide displacement on T2 cells)
[2] = test system: MCF-7 cells (MUC1+, HLA-A*0201+); test: 51Cr-release assay, peptide-induced CTLs from normal donors; format: cell-based, human; settings: for % of Donors with at Least 30% Cell Kill: normal donors (n = 8), MCF-7 targets, 30% cell kill considered a response; for Lysis of MCF-7 cells by CTLs elicited with the peptide: 8 normal post-menopausal HLA-A*0201 women, E:T 100:1, 6 h, p = 0.008 vs negative control P11
[3] = test system: MCF-7 cells (HLA-A*0201+, MUC1+); test: 51Cr-release assay, peptide-induced CTLs from breast cancer patients; format: cell-based, human; settings: for Lysis of MCF-7 cells by T cells from cancer samples: all three breast cancer patient samples, E:T 100:1
From the text: Figure 7 In vitro stimulation of T cells from HLA-A*0201^+ cancer patients (peri-menopausal) with anchor-optimized and/or glycosylated MUC1 peptides elicited strong CTL activity. (A) PBLs underwent two rounds of stimulation and sorted CD8^+ T cells were subjected to a ^51Cr-release assay. Targets were MCF-7 cells (HLA-A*0201^+, MUC1^+). Effector:target ratio was 100:1 and spontaneous release was less than 25% of complete lysis. The filled triangles designate normal individuals and the open triangles designate breast cancer patients. […] Following two rounds of stimulation, CD8^+ cells were maintained for 24 h on an ELISpot plate. Spot numbers were determined using computer assisted video image analysis by Zellnet Consulting Inc. (FortLee, NJ, USA). There was no evidence of a significance difference in spot numbers between cancer patients and healthy controls (Wilcoxon rank sum test; p > 0.05).
An optimized protocol for the generation of peptide-specific CTLs was developed that relied upon autologous DCs for stimulation. PBMCs (2 × 10^6 cells/mL of AIM V medium) were transferred to a 24-well plate and incubated for 2 h at 37 °C. Non-adherent lymphocytes were washed off with PBS and the adherent cells were cultured in X-VIVO medium containing GM-CSF (1000 U/mL) and IL-4 (1000 U/mL) to generate DCs. […] DCs were analyzed by flow cytometry for appropriate maturation markers. […] Five to seven days later, T cells were analyzed for cytolytic activity by ^51Cr-release assay and interferon gamma production by ELISPOT.
The lytic activity of the in vitro stimulated peptide-specific CTLs was measured by a standard six-hour ^51Cr-release assay. […] After incubation, 30 μL of supernatant was transferred onto LUMA plates (Perkin Elmer, Waltham, MA, USA) and radioactive ^51Cr release was measured in a Topcount Micro-scintillation Counter (Packard Biosciences, Shelton, CT, USA). […]

[4] = test system: Autologous DCs pulsed with MUC1 peptides; test: 51Cr-release assay against peptide-pulsed autologous DCs; format: cell-based, human; settings: four normal donors, DCs pulsed with 50 μg/mL peptide and PADRE 10 μg/mL, E:T 100:1
Description: Autologous DCs pulsed with various MUC1 peptides (50 μg/mL) and PADRE peptide (10 μg/mL) were used as targets. Effector:target ratio was 100:1 and spontaneous release was less than 15% of complete lysis. * p < 0.05 (Student’s t-test) compared to the negative peptide.
The lytic activity of the in vitro stimulated peptide-specific CTLs was measured by a standard six-hour ^51Cr-release assay. The target cells used were MCF-7 breast cancer cell lines which express MUC1^+ and HLA-A*0201, and MDA-MB-231 cells, which are MUC1 negative and express HLA-A*0201. All tumor targets were treated with IFNγ one-day prior to use to up-regulate class I surface expression. Autologous DCs pulsed with the recall peptides, other modified peptides and the native peptide were also used as targets to evaluate cross-reactivity of MUC1-specific CTLs. The targets were labeled with Na^51CrO4 (0.1 mCi/mL) for 2 h, washed 3 times with PBS and re-suspended in T cell medium to a concentration of 2 × 10^4 cells/mL. […] After incubation, 30 μL of supernatant was transferred onto LUMA plates (Perkin Elmer, Waltham, MA, USA) and radioactive ^51Cr release was measured in a Topcount Micro-scintillation Counter (Packard Biosciences, Shelton, CT, USA). Percent specific lysis was calculated according to the following formula: Percent specific lysis = (experimental cpms − spontaneous cpms)/(complete cpms − spontaneous cpms) × 100. […]

[5] = test system: CD8+ T cells (IFNγ production); test: IFNγ ELISpot of peptide-induced CD8+ T cells; format: cell-based, human; settings: for IFNγ production by CD8+ T cells generated to the peptide: normal donors, two rounds of stimulation, 24 h on ELISpot plate
Description: Figure 5 Production of IFNγ by CD8^+ T cells was induced in response to MUC1 peptides. Following two rounds of stimulation, CD8^+ cells were maintained for 24 h on an ELISpot plate. Spot numbers were determined using computer assisted video image analysis by Zellnet Consulting Inc. There were no significance differences compared to the negative peptide (p > 0.05).
IFNγ ELISpot plates from Mabtech (Stockholm, Sweden) were used to detect IFNγ producing MUC1-specific CTLs. The assay was performed using the capture IFNγ antibody as recommended by the manufacturer. Day five post R2-stimulation, the CTLs were washed three times and 1 × 10^5 cells were transferred to the washed and blocked IFNγ ELISpot plates and incubated at 37 °C in a 5% CO2 incubator for 24 h. After incubation the plates were washed with PBS, incubated with alkaline phosphatase-conjugated IFNγ antibody at room temperature for two hours and then spots were detected with BCIP/NBT substrate. Spot numbers were determined using computer assisted video image analysis by Zellnet Consulting Inc. (Fort Lee, NJ, USA).

[6] = test system: CD8+ T cells from HLA-A*0201 breast cancer patients; test: 3H-thymidine proliferation of T cells from breast cancer patients; format: cell-based, human; settings: 23 HLA-A*0201 breast cancer patients, DCs pulsed with 10 μg/mL peptide + IL-2, 5 days, vs no-peptide stimulated T cells
Description: CD8^+ T cells from the patients were incubated with irradiated autologous DCs pulsed with the various MUC1 peptides (10 μg/mL) plus IL-2 for 5 days and proliferation was assessed by measuring the ^3H-thymidine uptake. T cells from ~38% of the breast cancer patients responded to the selected MUC1 peptides (Figure 6).
Figure 6 T cells from ~38% of the HLA-A2^+ breast cancer patients regardless of their stage, ER/PR and HER2 status responded to the selected MUC1 peptides. 1 × 10^5 T cells were incubated with irradiated […] DCs pulsed with the various MUC1 peptides (10 μg/mL) + IL-2 for 5 days in complete media. Proliferation was assessed by measuring the ^3H-thymidine uptake and is reported as fold increase in counts per minute. The dotted line indicates the two-fold increase in proliferation.

[7] = molecular target: HLA-A*0201 molecules on T2 cells (Homo sapiens, UniProt P04439, D140Y/D185E/D98H/E176V/E277Q/G131W/G231S/I119V/I121R/I166T/I218V/L300P/L318F/N151K/N90K/P208A/P217A/Q86G/Q94H/R138H/R169H/T345S); test: MHC stabilization assay on T2 cells (fluorescence index); format: cell-based; settings: peptide 0–100 μg/mL, β2-microglobulin 1 μg/mL, 18 h 37 °C, BB7.2 antibody, flow cytometry
Description: Figure 1 MUC1 peptides (anchor-optimized and glycosylated) stabilized HLA-A*0201 molecules on T2 cells. Increasing amounts of the MUC1 peptides (0–100 μg/mL) and β2-microglobulin (1 μg/mL) were incubated with T2 cells for 18 h at 37 °C prior to staining with the HLA-A*0201 antibody (clone BB7.2, Pharmingen). Mean fluorescence intensity (MFI) was determined by flow cytometry and the fluorescence index (FI) was calculated from the formula: FI = (FS − FB)/(FT2 − FB) × 100 where FS is the MFI of the test peptides, FB is the non-peptide isotype antibody-stained control MFI, and FT2 is the non-peptide HLA-A*0201 antibody-stained control MFI.
Peptide binding to HLA-A*0201 was analyzed using TAP1- and TAP2-deficient T2 cells which express the HLA-A*0201 allele. […] Binding of the peptides was measured using flow cytometry for upregulation of HLA-A2 surface expression on the T2 cells. […] Mean fluorescence intensity (MFI) was determined and the fluorescence index (FI) was calculated from the formula: FI = (FS − FB)/(FT2 − FB) × 100 where FS is the MFI of the test peptides, FB is the no-peptide isotype antibody-stained control MFI, and FT2 is the no-peptide HLA-A2 antibody-stained control MFI [52].

CC(C)C[C@H](NC(=O)[C@@H](N)CO)C(=O)N[C@@H](C)C(=O)N1CCC[C@H]1C(=O)N1CCC[C@H]1C(=O)N[C@H](C(=O)N[C@@H](Cc1c[nH]cn1)C(=O)N[C@@H](CC(N)=O)C(=O)N[C@H](C(=O)O)C(C)C)C(C)C [P15] gave an IC50 [1] of 363 nM.
For “ALGSTAPPV [P9, unmodified native MUC1 degenerate TR peptide, reference compound]”, the “% of Donors with at Least 30% Cell Kill” value ([2]; E:T 100:1) was 12.50%.
Compound LLLLTVLTV [P5] has an IC50 [1] of 11100 nM.
For “SLAPT(Tn)VHNV [P4, glycosylated anchor-optimized MUC1 peptide]”, the “Lysis of MCF-7 cells by T cells from cancer samples” value [3] was “greater than 30%”, the “Fold higher affinity than the known M1.1 and M1.2 MUC1 peptides” value ([1]; discussion, '8- to 30-fold, respectively') was 8 fold and the “Lysis of MCF-7 cells by CTLs elicited with the peptide” value [2] was “significant lysis”. The “Percent of donors that will respond (lower limit of 95% CI)” value ([2]; based on considering 30% cell kill a response) was “at least 35%”, the “% of Donors with at Least 30% Cell Kill” value ([2]; E:T 100:1) was 75% and the “Lytic reactivity of CTLs against DCs pulsed with immunizing or native P1 peptide” value [4] was “reacted against the native P1:STAPPVHNV”. For the same compound, the “IFNγ production by CD8+ T cells generated to the peptide” value [5] was “showed production of IFNγ” and the “Patients responding with >2-fold increase in proliferation” value [6] was 10/23.
SLSYTNPAV [P7] gave an IC50 [1] of 441 nM.
“STAPPVHNV [P1, native MUC1 degenerate tandem repeat peptide]” was tested, and the “Lysis of MCF-7 cells by T cells from cancer samples” value [3] was “greater than 30%”, the “Activation of lytic T cells from breast cancer patients” value ([3]; three breast cancer patients, MCF-7 targets) was “effectively activated lytic T cells from all three breast cancer patients” and the “IC50 (concentration producing 50% inhibition of F1-peptide binding)” value ([1]; T2 cells, F1-peptide 100 ng/mL, β2-microglobulin 1 μg/mL, competitor 0–100 μg/mL, flow cytometry MFI, Prism) was 10.13 µg/mL. For the same compound, the “Affinity class of binder to HLA-A*0201” value ([1]; scored from IC50 in the competition assay on T2 cells) was “medium (“medium affinity binders” with IC50 of ≥to 5 μg/mL and <15 μg/mL)”, the “Lysis of MCF-7 cells by CTLs elicited with the peptide” value [2] was “did not elicit lytic T cells” and the “Binding to HLA-A*0201 on T2 cells by fluorescence index (FI)” value [7] was “bound moderately”. The “Patients responding with >2-fold increase in proliferation” value [6] was 8/23.
With “STAPT(Tn)VHNV [P2, Tn-glycosylated MUC1 peptide]” the “Lysis of MCF-7 cells by CTLs elicited with the peptide, one individual” value ([2]; CTLs from one normal individual, E:T 100:1) was “low lysis”, the “IFNγ production by CTLs elicited by the peptide, one individual” value ([5]; CTLs from one normal individual) was “strong production of IFNγ” and the “IFNγ production by CD8+ T cells generated to the peptide” value [5] was “showed production of IFNγ”.
